The record followed here is patent publication US20260109707A1, “HETEROBIFUNCTIONAL COMPOUNDS AND METHODS OF TREATING DISEASE” (Halda Therapeutics OpCo. Inc., priority 2022, published 2026).

Usually GI50 stands for the concentration giving 50% growth inhibition. The low end stands for more potent growth inhibition, the high end for less potent growth inhibition.

The subject of experiment [1] is T-Rex 293 cell line SC3 cells having increased expression of androgen receptor protein due to exposure to doxycycline. Nature of the experiment: Cellular growth inhibition assay, T-Rex 293 SC3 cells with doxycycline (CellTiter-Glo, 72 hours). In kind it is cell-based. The conditions noted are these: T-Rex 293 SC3 cells with increased androgen receptor expression due to doxycycline (10 ng/mL). The method, boiled down:
(§1)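 Doxycycline (10 ng/mL) was either included or omitted to toggle wild-type androgen receptor expression in SC3 cells, a T-Rex 293 clone, grown in stripped-serum, phenol red-free medium. After 72 hours with compound, viable cells were quantified by CellTiter-Glo 2.0.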
Background: Cellular ATP, detected with luciferase, serves as a proxy for viable cell number.

A further experiment concerns VCaP cells. Put plainly: Cellular growth inhibition assay for VCaP cells (CellTiter-Glo, 72 hours). The class given is cell-based, human. The essentials: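 Luminescent viability signal after 72 h of compound exposure gave GI50 values by four-parameter nonlinear regression. Compounds were added in 0.5% DMSO to cells plated 24 h earlier at 5000/well in DMEM containing 10% FBS.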

The subject of experiment [2] is T-Rex 293 cell line SC3 cells lacking increased expression of androgen receptor protein. Nature of the experiment: Cellular growth inhibition assay, T-Rex 293 SC3 cells without doxycycline (CellTiter-Glo, 72 hours). In kind it is cell-based. The conditions noted are these: T-Rex 293 cell line SC3 cells not exposed to doxycycline (lacking increased androgen receptor expression). The method, boiled down:
as §1

Molecules are shown by their SMILES. Read-outs that look alike come from different tables or passages of the source. Bounds are passed on as bounds.

As to `Cc1sc2c(c1C)C(c1ccc(N3C4CCC3CN(c3ncc(C(=O)N[C@H]5CC[C@H](Oc6ccc(C#N)c(Cl)c6)CC5)cn3)C4)cc1)=NC(Cc1ncco1)c1nnc(C)n1-2` (stereo partly drawn) [I-785], the GI50 in experiment [1] is less than 500 nM; in the experiment on VCaP cells (Homo sapiens, VCaP, 72 h), more than 3000 nM; in experiment [2], 500 to 1500 nM.
In the case of `Cc1sc2c(c1C)C(c1ccc(NCC3CCN(c4ncc(C(=O)N[C@H]5CC[C@H](Oc6ccc(C#N)c(Cl)c6)CC5)cn4)CC3)cc1)=NC(Cc1ncco1)c1nnc(C)n1-2` (stereo partly drawn) [I-786], the GI50 is less than 500 nM in experiment [1] (72 h); less than 500 nM with VCaP cells (Homo sapiens, VCaP, 72 h); less than 500 nM in experiment [2] (72 h).
`Cc1sc2c(c1C)C(c1ccc(NCC3CCCCN3c3ncc(C(=O)N[C@H]4CC[C@H](Oc5ccc(C#N)c(Cl)c5)CC4)cn3)cc1)=NC(Cc1ncco1)c1nnc(C)n1-2` (stereo partly drawn) [I-787]: the GI50 was less than 500 nM in experiment [1] (72 h); 500 to 1500 nM in the experiment on VCaP cells (Homo sapiens, VCaP, 72 h); less than 500 nM in experiment [2] (72 h).
Turning to `Cc1sc2c(c1C)C(c1ccc(NC3CCCN(c4ncc(C(=O)N[C@H]5CC[C@H](Oc6ccc(C#N)c(Cl)c6)CC5)cn4)CC3)cc1)=NC(Cc1ncco1)c1nnc(C)n1-2` (stereo partly drawn) [I-789], the GI50 is less than 500 nM in experiment [1] (72 h); less than 500 nM in the experiment on VCaP cells (Homo sapiens, VCaP, 72 h); less than 500 nM in experiment [2] (72 h).
Regarding `Cc1sc2c(c1C)C(c1ccc(N[C@H]3CC[C@H](Nc4ncc(C(=O)N[C@H]5CC[C@H](Oc6ccc(C#N)c(Cl)c6)CC5)cn4)CC3)cc1)=NC(Cc1ncco1)c1nnc(C)n1-2` (stereo partly drawn) [I-790], the GI50 in experiment [1] (72 h) is less than 500 nM; in the experiment with VCaP cells (Homo sapiens, VCaP, 72 h) it was less than 500 nM; in experiment [2] (72 h) it was less than 500 nM.
With `Cc1sc2c(c1C)C(c1ccc(N3CCC(N4CCN(c5ncc(C(=O)N[C@H]6CC[C@H](Oc7ccc(C#N)c(Cl)c7)CC6)cn5)CC4)CC3)cc1)=NC(Cc1ncco1)c1nnc(C)n1-2` (stereo partly drawn) [I-792], the GI50 in experiment [1] (72 h) was less than 500 nM; in the experiment on VCaP cells (Homo sapiens, VCaP, 72 h), less than 500 nM; in experiment [2] (72 h), less than 500 nM.
For the compound `Cc1sc2c(c1C)C(c1ccc(NCCCN3CCN(c4ncc(C(=O)N[C@H]5CC[C@H](Oc6ccc(C#N)c(Cl)c6)CC5)cn4)CC3)cc1)=NC(Cc1ncco1)c1nnc(C)n1-2` (stereo partly drawn) [I-793], the GI50 in experiment [1] (72 h) is less than 500 nM; in the experiment with VCaP cells (Homo sapiens, VCaP, 72 h) it was less than 500 nM; in experiment [2] (72 h), less than 500 nM.
Regarding `Cc1sc2c(c1C)C(c1ccc(N3CCOC4(CCN(c5ncc(C(=O)N[C@H]6CC[C@H](Oc7ccc(C#N)c(Cl)c7)CC6)cn5)CC4)C3)cc1)=NC(Cc1ncco1)c1nnc(C)n1-2` (stereo partly drawn) [I-794], the GI50 was less than 500 nM in experiment [1] (72 h); less than 500 nM in the experiment with VCaP cells (Homo sapiens, VCaP, 72 h); more than 3000 nM in experiment [2] (72 h).
For the compound `Cc1sc2c(c1C)C(c1ccc(N3CC[C@@H](CNc4ncc(C(=O)N[C@H]5CC[C@H](Oc6ccc(C#N)c(Cl)c6)CC5)cn4)C3)cc1)=NC(Cc1ncco1)c1nnc(C)n1-2` (stereo partly drawn) [I-795], the GI50 is less than 500 nM in experiment [1] (72 h); 500 to 1500 nM in the experiment with VCaP cells (Homo sapiens, VCaP, 72 h); less than 500 nM in experiment [2] (72 h).
`Cc1sc2c(c1C)C(c1ccc(N[C@H]3CC[C@H](CNc4ncc(C(=O)N[C@H]5CC[C@H](Oc6ccc(C#N)c(Cl)c6)CC5)cn4)CC3)cc1)=NC(Cc1ncco1)c1nnc(C)n1-2` (stereo partly drawn) [I-796]: the GI50 in experiment [1] (72 h) was less than 500 nM; in the experiment on VCaP cells (Homo sapiens, VCaP, 72 h), less than 500 nM; in experiment [2] (72 h), less than 500 nM.
On to `Cc1sc2c(c1C)C(c1ccc(N3CCCC(CN(C)c4ncc(C(=O)N[C@H]5CC[C@H](Oc6ccc(C#N)c(Cl)c6)CC5)cn4)C3)cc1)=NC(Cc1ncco1)c1nnc(C)n1-2` (stereo partly drawn) [I-797, N-((1r,4r)-4-(3-chloro-4-cyanophenoxy)cyclohexyl)-2-(methyl((1-(4-(2,3,9-trimethyl-6-(oxazol-2-ylmethyl)-6H-thieno[3,2-f][1,2,4]triazolo[4,3-a][1,4]diazepin-4-yl)phenyl)piperidin-3-yl)methyl)amino)pyrimidine-5-carboxamide], for which the GI50 in experiment [1] (72 h) was less than 500 nM; in the experiment on VCaP cells (Homo sapiens, VCaP, 72 h), less than 500 nM; in experiment [2] (72 h), less than 500 nM.
Consider `Cc1sc2c(c1C)C(c1ccc(N3CCN(C4CCN(c5ncc(C(=O)N[C@H]6CC[C@H](Oc7ccc(C#N)c(Cl)c7)CC6)cn5)CC4)CC3)cc1)=NC(Cc1ncco1)c1nnc(C)n1-2` (stereo partly drawn) [I-798], for which the GI50 in experiment [1] (72 h) was less than 500 nM; with VCaP cells (Homo sapiens, VCaP, 72 h), less than 500 nM; in experiment [2] (72 h), less than 500 nM.
Turning to `Cc1sc2c(c1C)C(c1ccc(NC3CC4CCCC(C3)N4c3ncc(C(=O)N[C@H]4CC[C@H](Oc5ccc(C#N)c(Cl)c5)CC4)cn3)cc1)=NC(Cc1ncco1)c1nnc(C)n1-2` (stereo partly drawn) [I-799], the GI50 in experiment [1] was less than 500 nM; in the experiment on VCaP cells (Homo sapiens, VCaP, 72 h), less than 500 nM; in experiment [2], more than 3000 nM.
In the case of `Cc1sc2c(c1C)C(c1ccc(NCCC3CCCN(c4ncc(C(=O)N[C@H]5CC[C@H](Oc6ccc(C#N)c(Cl)c6)CC5)cn4)C3)cc1)=NC(Cc1ncco1)c1nnc(C)n1-2` (stereo partly drawn) [I-800], the GI50 in experiment [1] (72 h) was less than 500 nM; in the experiment on VCaP cells (Homo sapiens, VCaP, 72 h), less than 500 nM; in experiment [2] (72 h) it was less than 500 nM.
Regarding `Cc1sc2c(c1C)C(c1ccc(N[C@@H]3CCC[C@H](Nc4ncc(C(=O)N[C@H]5CC[C@H](Oc6ccc(C#N)c(Cl)c6)CC5)cn4)C3)cc1)=NC(Cc1ncco1)c1nnc(C)n1-2` (stereo partly drawn) [I-801], the GI50 in experiment [1] (72 h) is less than 500 nM; in the experiment with VCaP cells (Homo sapiens, VCaP, 72 h) it was less than 500 nM; in experiment [2] (72 h), less than 500 nM.
For `Cc1sc2c(c1C)C(c1ccc(N3C4CC(=O)CC3CN(c3ncc(C(=O)N[C@H]5CC[C@H](Oc6ccc(C#N)c(Cl)c6)CC5)cn3)C4)cc1)=NC(Cc1ncco1)c1nnc(C)n1-2` (stereo partly drawn) [I-802], the GI50 was less than 500 nM in experiment [1]; less than 500 nM with VCaP cells (Homo sapiens, VCaP, 72 h); 500 to 1500 nM in experiment [2].
Turning to `Cc1sc2c(c1C)C(c1ccc(N[C@H]3CCCCN(c4ncc(C(=O)N[C@H]5CC[C@H](Oc6ccc(C#N)c(Cl)c6)CC5)cn4)C3)cc1)=NC(Cc1ncco1)c1nnc(C)n1-2` (stereo partly drawn) [I-803], the GI50 in experiment [1] (72 h) was less than 500 nM; in the experiment with VCaP cells (Homo sapiens, VCaP, 72 h), less than 500 nM; in experiment [2] (72 h) it was more than 3000 nM.
For `Cc1sc2c(c1C)C(c1ccc(N3CCC4(CCCN(c5ncc(C(=O)N[C@H]6CC[C@H](Oc7ccc(C#N)c(Cl)c7)CC6)cn5)C4)C3)cc1)=NC(Cc1ncco1)c1nnc(C)n1-2` (stereo partly drawn) [I-804], the GI50 was less than 500 nM in experiment [1] (72 h); less than 500 nM in the experiment on VCaP cells (Homo sapiens, VCaP, 72 h); more than 3000 nM in experiment [2] (72 h).
Consider `Cc1sc2c(c1C)C(c1ccc(N3C[C@@H]4[C@H](C3)[C@H]4Nc3ncc(C(=O)N[C@H]4CC[C@H](Oc5ccc(C#N)c(Cl)c5)CC4)cn3)cc1)=NC(Cc1ncco1)c1nnc(C)n1-2` (stereo partly drawn) [I-805], for which the GI50 in experiment [1] (72 h) is less than 500 nM; in the experiment with VCaP cells (Homo sapiens, VCaP, 72 h) it was less than 500 nM; in experiment [2] (72 h), less than 500 nM.
`Cc1sc2c(c1C)C(c1ccc(NCCCC3CCN(c4ncc(C(=O)N[C@H]5CC[C@H](Oc6ccc(C#N)c(Cl)c6)CC5)cn4)CC3)cc1)=NC(Cc1ncco1)c1nnc(C)n1-2` (stereo partly drawn) [I-806]: the GI50 in experiment [1] (72 h) is less than 500 nM; in the experiment with VCaP cells (Homo sapiens, VCaP, 72 h), less than 500 nM; in experiment [2] (72 h), less than 500 nM.
As for `Cc1sc2c(c1C)C(c1ccc(NC[C@H]3CC[C@H](CNc4ncc(C(=O)N[C@H]5CC[C@H](Oc6ccc(C#N)c(Cl)c6)CC5)cn4)CC3)cc1)=NC(Cc1ncco1)c1nnc(C)n1-2` (stereo partly drawn) [I-807], the GI50 in experiment [1] (72 h) is less than 500 nM; in the experiment with VCaP cells (Homo sapiens, VCaP, 72 h), less than 500 nM; in experiment [2] (72 h), less than 500 nM.
As to `Cc1sc2c(c1C)C(c1ccc(NCC3CC4(C3)CN(c3ncc(C(=O)N[C@H]5CC[C@H](Oc6ccc(C#N)c(Cl)c6)CC5)cn3)C4)cc1)=NC(Cc1ncco1)c1nnc(C)n1-2` (stereo partly drawn) [I-808], the GI50 is less than 500 nM in experiment [1] (72 h); 500 to 1500 nM in the experiment on VCaP cells (Homo sapiens, VCaP, 72 h); more than 3000 nM in experiment [2] (72 h).
The matching figures for `Cc1sc2c(c1C)C(c1ccc(C3CCC4(CCN(c5ccc(C(=O)N[C@H]6CC[C@H](Oc7ccc(C#N)c(Cl)c7)CC6)nn5)C4)C3)cc1)=N[C@@H](C)c1nnc(C)n1-2` (stereo partly drawn) [I-821, N-[4-(3-chloro-4-cyano-phenoxy)cyclohexyl]-6-[8-[4-[(9S)-4,5,9,13-tetramethyl-3-thia-1,8,11,12-tetrazatricyclo[8.3.0.02,6]trideca-2(6),4,7,10,12-pentaen-7-yl]phenyl]-2-azaspiro[4.4]nonan-2-yl]pyridazine-3-carboxamide]: less than 500 nM, less than 500 nM and less than 500 nM.
Regarding `Cc1sc2c(c1C)C(c1ccc(C3CCC4(CCN(c5ccc(C(=O)N[C@H]6CC[C@H](Oc7ccc(C#N)c(Cl)c7)CC6)nn5)C4)C3)cc1)=N[C@@H](C)c1nnc(C)n1-2` (stereo partly drawn) [I-822, N-[4-(3-chloro-4-cyano-phenoxy)cyclohexyl]-6-[8-[4-[(9S)-4,5,9,13-tetramethyl-3-thia-1,8,11,12-tetrazatricyclo[8.3.0.02,6]trideca-2(6),4,7,10,12-pentaen-7-yl]phenyl]-2-azaspiro[4.4]nonan-2-yl]pyridazine-3-carboxamide], the GI50 (in experiment [1]; with VCaP cells; in experiment [2]) was less than 500 nM throughout.
Consider `Cc1sc2c(c1C)C(c1ccc(C3CCC4(CCN(c5ccc(C(=O)N[C@H]6CC[C@H](Oc7ccc(C#N)c(Cl)c7)CC6)nn5)C4)C3)cc1)=N[C@@H](C)c1nnc(C)n1-2` (stereo partly drawn) [I-823, N-[4-(3-chloro-4-cyano-phenoxy)cyclohexyl]-6-[8-[4-[(9S)-4,5,9,13-tetramethyl-3-thia-1,8,11,12-tetrazatricyclo[8.3.0.02,6]trideca-2(6),4,7,10,12-pentaen-7-yl]phenyl]-2-azaspiro[4.4]nonan-2-yl]pyridazine-3-carboxamide], for which the GI50 (in experiment [1]; in the experiment with VCaP cells; in experiment [2]) was less than 500 nM each time.
